This note sets out measurements from ChEMBL document CHEMBL3785025, “Focus on PAINS: false friends in the quest for selective anti-protozoal lead structures from Nature?” (Medchemcomm, 2016).

Structures are written as SMILES. ≈ marks a conversion by molar mass, not a printed value.

Series [1] relates to Leishmania donovani. Description: Antileishmanial activity against Leishmania donovani MHOM/ET/67/HU3 after 5 days by Giemsa staining based microscopic analysis. Format: functional, organism-based. To be noted: MHOM/ET/67/HU3, 120 h.
Series [2] deals with Trypanosoma brucei brucei. Description: Antitrypanosomal activity against Trypanosoma brucei brucei. It is filed as functional, organism-based.
Series [3] relates to Plasmodium falciparum. Description: Antiplasmodial activity against chloroquine-resistant Plasmodium falciparum FcB1/Colombia after 24 hrs by [3H]hypoxanthine incorporation assay. Format: functional, organism-based.
The test system of series [4] is Trypanosoma cruzi. Description: Antitrypanosomal activity against trypomastigote forms of Trypanosoma cruzi Tulahuen C2C4 infected in rat L6 cells after 96 hrs by photometric method. Format: functional, organism-based. The conditions noted are these: Tulahuen C2C4, L6, 96 h.
Series [5] concerns Trypanosoma brucei rhodesiense. The series can be described thus: Antitrypanosomal activity against Trypanosoma brucei rhodesiense STIB 900 after 72 hrs by alamar blue staining based fluorescence analysis. To be noted: STIB 900, 72 h. Format: functional, organism-based.
Series [6] has as its system Leishmania donovani. Description: Antileishmanial activity against Leishmania donovani MHOM/ET/67/L82 after 72 hrs by Alamar blue dye based fluorescence analysis. To be noted: MHOM/ET/67/L82, 72 h. Format: functional, organism-based. Background: Resazurin is reduced to fluorescent resorufin, in cell work by metabolically active cells.
The nature of series [7]: Cytotoxicity against human U937 cells after 72 hrs by MTT assay. It is filed as functional. The conditions noted are these: U-937, 72 h, read-out: LD50 (the source's name). On the technique in general: Tetrazolium assays rely on reduction of a dye to a coloured formazan, in cell work by metabolically active cells.
In series [8] the test system is Plasmodium falciparum. Description: Antimalarial activity against chloroquine-sensitive Plasmodium falciparum 3D7 after 48 hrs by ethidium bromide staining based fluorometric method. It is filed as functional, organism-based. To be noted: 3D7, 48 h.
A further series concerns L6. Description: Cytotoxicity against rat L6 cells after 72 hrs by alamar blue staining based fluorescence analysis. It is filed as functional, cell-based. To be noted: L6, 72 h.
Series [9] has as its system Leishmania donovani. Description: Antileishmanial activity against Leishmania donovani MHOM/ET/67/L82 after 72 hrs by resazurin dye based fluorescence analysis. It is filed as functional, organism-based. To be noted: MHOM/ET/67/L82, 72 h.
Series [10] relates to Trypanosoma cruzi. Description: Antitrypanosomal activity against trypomastigote forms of Trypanosoma cruzi Tulahuen C2C4 infected in rat L6 cells assessed as inhibition of growth after 96 hrs by inverted microscopy. Format: functional, organism-based. The conditions noted are these: Tulahuen C2C4, L6, 96 h.
The subject of series [11] is Plasmodium falciparum. The series can be described thus: Antimalarial activity against chloroquine and pyrimethamine-resistant Plasmodium falciparum K1 infected in human red blood cells after 48 hrs by [3H]hypoxanthine incorporation assay. Format: functional, organism-based.
Series [12] concerns Leishmania amazonensis. Description: Antileishmanial activity against amastigote Leishmania amazonensis relative to control. Format: functional.
Series [13] concerns Leishmania amazonensis. The series can be described thus: Antileishmanial activity against amastigote Leishmania amazonensis. It is filed as functional, organism-based.
Series [14] in a line: Cmax in Wistar rat at 50 mg/kg administered as lipid nanoparticle suspension after 2 hrs by UPLC method. Format: ADME, organism-based. The arrangement: dose 50 mg/kg. To be noted: in vivo.
For a further series, the system named is Leishmania infantum. The series can be described thus: Antileishmanial activity against Leishmania infantum MCAN/IR/07/Moheb-gh assessed as cell viability after 72 hrs by MTT assay. Format: functional, organism-based.
Another series relates to Leishmania tropica. Description: Antileishmanial activity against Leishmania tropica MHOM/IR/2002/Mash2 assessed as cell viability after 72 hrs by MTT assay. Format: functional, organism-based. To be noted: MHOM/IR/2002/Mash2, 72 h.
The nature of series [15]: Cmax in Wistar rat at 50 mg/kg after 2 hrs by UPLC method. It is filed as ADME, organism-based. The arrangement: dose 50 mg/kg. To be noted: in vivo.
The next series addresses T1, Arginase-1 (Rattus norvegicus, UniProt P07824).
T1 sequence (P07824 whole entry): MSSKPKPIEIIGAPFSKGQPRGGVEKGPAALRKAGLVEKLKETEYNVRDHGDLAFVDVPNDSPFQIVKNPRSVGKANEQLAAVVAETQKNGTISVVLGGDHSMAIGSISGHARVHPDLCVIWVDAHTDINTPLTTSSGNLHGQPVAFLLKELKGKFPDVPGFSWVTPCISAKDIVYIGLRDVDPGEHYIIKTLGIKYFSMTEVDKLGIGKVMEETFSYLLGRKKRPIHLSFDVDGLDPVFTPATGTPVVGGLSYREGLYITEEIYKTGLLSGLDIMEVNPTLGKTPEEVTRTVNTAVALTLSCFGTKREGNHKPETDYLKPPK
Description: Inhibition of recombinant rat liver arginase expressed without histidine tail assessed as urea formation using L-arginine as substrate after 15 mins by Berthelot assay.

Series [16] concerns Leishmania major. The series can be described thus: Antileishmanial activity against promastigote Leishmania major MHOM/IL/67/LRC-L137 assessed as growth inhibition after 2 hrs by [3H]-thymidine incorporation assay. Format: functional, organism-based. A general note: Uptake of a labelled nucleoside into DNA is a usual measure of proliferation.
Series [17] concerns Leishmania donovani. Description: Antileishmanial activity against […] Leishmania donovani MHOM/KE/85/NLB439 in human peripheral blood monocyte derived macrophages assessed as growth inhibition after 24 hrs by [3H]-thymidine incorporation assay. It is filed as functional, organism-based.
Series [18] has as its system Leishmania major. Description: Antileishmanial activity against Leishmania major promastigotes. Format: functional. To be noted: read-out: LD50 (the source's name).
Series [19] deals with Plasmodium falciparum. Description: Antimalarial activity against chloroquine-sensitive Plasmodium falciparum 3D7 after 24 hrs by [3H]hypoxanthine labeling method. Format: functional, organism-based.
For another series, the system named is Trypanosoma brucei. The series can be described thus: Antitrypanosomal activity against Trypanosoma brucei. It is filed as functional, organism-based.
Series [20] can be described thus: Cytotoxicity against HEK293T cells. Format: cell-based. The conditions noted are these: Homo sapiens, HEK-293T.
The nature of series [21]: Cytotoxicity against mouse J774.1 cells. Format: cell-based.
The subject of another series is Plasma. The series can be described thus: Plasma concentration in human at […], administered orally by HPLC method in presence of 20 mg piperine. It is filed as ADME, cell-free. The conditions noted are these: po.

Regarding `OC[C@H]1O[C@@H](O[C@@H](CCc2ccc(O)c(O)c2)C[C@@H](O)CCc2ccc(O)c(O)c2)[C@H](O)[C@@H](O)[C@@H]1O`, the IC50 (as a rule, the concentration at which inhibition is half-maximal) with Leishmania donovani [1] is 30 µM; in series [2] it was 25 µM; in the series on Plasmodium falciparum [3], above 20 µM.
In the case of `O=c1c(O)c(-c2ccc(O)c(O)c2)oc2cc(O)cc(O)c12` [QUERCETIN], the figures for the IC50 (in the series with Trypanosoma cruzi [4]; in series [5]; in the series on Leishmania donovani [6]) were above 30 µg/mL, 8.3 µg/mL and 1 µg/mL (≈ 3.31 µM), respectively.
Take `CC(C)=CCc1c(O)c(O)c(O)c2c(=O)c3c(CC=C(C)C)c(O)c(O)cc3oc12`: in series [7], the CC50 came to 263 µM. In addition, in the series on Plasmodium falciparum [8], inhibition was half-maximal at 12.4 µM (IC50).
Turning to `O=CO[C@@H](CCc1ccc(O)c(O)c1)C[C@H](CCc1ccc(O)c(O)c1)O[C@@H]1O[C@H](CO)[C@@H](O)[C@H](O)[C@H]1O`, the IC50 in the series with Leishmania donovani [1] is 30 µM; in [2], 25 µM; in the series on Plasmodium falciparum [3], above 20 µM.
For `C[C@@H]1O[C@@H](Oc2c(-c3ccc(O)c(O)c3)oc3cc(O)cc(O)c3c2=O)[C@H](O)[C@H](O)[C@H]1O` [QUERCITRIN], the IC50 with Trypanosoma cruzi [4] was above 30 µg/mL; in [5] it was 27.9 µg/mL; in the series on L6, above 90 µg/mL; in the series with Leishmania donovani [6], 17.7 µg/mL (≈ 39.5 µM).
As for `C/C=C(\C)CO[C@@H]1CC([C@@H](O)[C@]2(C)C=C3OC(=O)C4=C3[C@H]2[C@H]2OC(=O)[C@H](C)[C@@H]2[C@H](OC/C(C)=C/C)C4)=C2C(=O)C=C(C)[C@@H]2[C@H]2OC(=O)[C@H](C)[C@@H]21`, the concentration for half-maximal inhibition (IC50) was 6.2 µM in series [5]; 10.2 µM in the series with Leishmania donovani [9]; 16.2 µM with L6; 30.3 µM with Trypanosoma cruzi [10]; 2000 nM in the series on Plasmodium falciparum [11].
`COc1ccc(CC[C@H](O)C[C@H](CCc2ccc(O)c(O)c2)O[C@@H]2O[C@H](CO)[C@@H](O)[C@H](O)[C@H]2O)cc1`: the results for the 50% inhibitory concentration (IC50) (with Leishmania donovani [1]; in series [2]; in the series on Plasmodium falciparum [3]) were 30 µM, above 100 µM and above 20 µM, respectively.
With `O=c1c(O[C@@H]2O[C@H](CO)[C@@H](O)[C@H](O)[C@H]2O)c(-c2ccc(O)c(O)c2)oc2cc(O)cc(O)c12` [ISOQUERCETIN], the Activity in the series on Leishmania amazonensis [12] was 40%. In addition, the half-inhibitory concentration (IC50) with Leishmania amazonensis [13] was 0.78 µg/mL (≈ 1.68 µM).
For the molecule `COc1ccc(CC[C@@H](C[C@H](CCc2ccc(O)c(O)c2)O[C@@H]2O[C@H](CO)[C@@H](O)[C@H](O)[C@H]2O)OC=O)cc1`, the IC50 is 30 µM in the series on Leishmania donovani [1], 25 µM in [2] and above 20 µM in the series with Plasmodium falciparum [3].
For `CC1=CC(=O)C(C(C)C)=CC1=O` [THYMOQUINONE], the figures for the Cmax in [14] and in [15] were 900 ng/mL and 400 ng/mL, respectively. Further, the IC50 in the series with Leishmania infantum was found to be 1.47 µg/mL (≈ 8.95 µM); in the series on Leishmania tropica, 1.16 µg/mL (≈ 7.06 µM).
Turning to `O=c1c(O)c(-c2ccc(O)c(O)c2)oc2cc(O)ccc12` [FISETIN], the concentration for half-maximal inhibition (IC50) in the series on Trypanosoma cruzi [4] was above 30 µg/mL; in [5], 3.3 µg/mL; on Arginase-1, 1.4 µM; with L6, 38.5 µg/mL; in the series on Leishmania donovani [6], 0.6 µg/mL (≈ 2.1 µM).
Regarding `C=CC(C)(C)c1cc(/C=C/C(=O)c2ccc(O)cc2)c(OC)cc1O` [LICOAGROCHACONE A], the IC50 in the series with Leishmania major [16] was determined as 7.2 µM; in the series with Leishmania donovani [17] it was 900 nM.
For the molecule `O=c1cc(-c2ccc(O)cc2)oc2cc(O)cc(O)c12` [APIGENIN], the half-maximal inhibitory concentration (IC50) came to 21.8 µg/mL (≈ 80.7 µM) in the series with Trypanosoma cruzi [4], 5.1 µg/mL in series [5], 18.1 µg/mL in the series with L6 and 1.9 µg/mL (≈ 7.03 µM) in the series with Leishmania donovani [6].
Take `COc1cc(/C=C/C(=O)CC(=O)/C=C/c2ccc(O)c(OC)c2)ccc1O` [CURCUMIN]: the LC50 with Leishmania major [18] came to 37.6 µM; in series [2] (read-out: LD50 (the source's name)) it was 46.5 µM. The half-inhibitory concentration (IC50) in the series with Plasmodium falciparum [19] was found to be 25 µM; with Trypanosoma brucei, 3.6 µM; in series [20], 15.2 µM; in [21] it was 31 µM. For the same molecule, in the series on Plasma, the Cp was determined as 0.18 µg/mL.
With `O=c1cc(-c2ccc(O)c(O)c2)oc2cc(O)cc(O)c12` [LUTEOLIN], the IC50 was 21.4 µg/mL (≈ 74.8 µM) with Trypanosoma cruzi [4]; 3.7 µg/mL in [5]; 9 µM at Arginase-1; 9.4 µg/mL in the series with L6; 0.8 µg/mL (≈ 2.79 µM) with Leishmania donovani [6].
